Laboratory results as given in patent US10064848B2, “Pyridic ketone derivatives, method of preparing same, and pharmaceutical application thereof” (Shanghai Hengrui Pharmaceutical Co., Ltd., priority 2013, dated 2018).

Experiments:
Colo205 cell = experiment: Proliferation inhibition on Colo205 (CCK8); format: cell-based; conditions: Homo sapiens, COLO 205, Colo205, 72 hours
Source text: Cell line used in the assay: Colo205 (Cell Bank of the Chinese Academy of Sciences, Catalog No. TCHu102).
The following in vitro cell assay is to determine the activity of the compounds of the present invention for inhibiting the proliferation of human colon cancer cell, and the activity is expressed as IC50. General programs of this kind of assay were as follows: First, the cell line to be tested (purchased from Cell Bank of the Chinese Academy of Sciences) was inoculated in a 96-well culture plate with a suitable cell concentration of 4000 cells/mL medium, and was cultured in a carbon dioxide incubator at 37° C., then grown overnight. The medium was replaced by new medium added with a series of concentrations (10000 nM, 1000 nM, 100 nM, 10 nM, 1 nM, 0.1 nM) of the test compound solutions. The plates were placed back in the incubator, and continuously cultured for 72 hours. After 72 hours, CCK8 (Cell Counting Kit-8, Catalog No.: CK04, purchased from colleagues chemical company) method was used to determine the proliferation inhibition activity of the test compounds. IC50 values were calculated from the inhibition data of the test compounds at a series of different concentrations.
The above assay was used to determine the biochemical activity of the compounds of the present invention.

[1] = target: T1, MEK1 (Recombinant Human Protein) (Homo sapiens, UniProt Q02750); experiment: MEK1 kinase inhibition assay (Z'-LYTE Kinase Assay Kit-Ser/Thr 03 Peptide); format: biochemical; conditions: 4 hours at 37° C, read-out: IC50 for inhibiting MEK kinase (MEK1)
T1 construct: purchased Invitrogen PV3093
Procedure: MEK1 kinase activity was tested in vitro by the following method.
MEK kinase used in the assay: MEK1 (Recombinant Human Protein, Invitrogen, Catalog No. PV3093).
Kit used in the assay: Z′-LYTE™ Kinase Assay Kit-Ser/Thr 03 Peptide (Invitrogen, Catalog No. PV3176).
The following in vitro assay was used to determine the activity of the compounds of the present invention for inhibiting the […] MEK kinase. The test compound was dissolved in dimethyl sulfoxide to the desired concentration. 1× Buffer A (Invitrogen, Catalog No. PV3189) was prepared, ATP was diluted with 1× Buffer A to obtain 400 μM ATP solution, appropriate amounts of Z′-LYTE™ Ser/Thr 03 Peptide (Invitrogen, Catalog No. PV3200), MEK kinase (MEK1) Enzymes and 1× Buffer A were mixed, and appropriate amounts of Z′-LYTE™ Ser/Thr 03 phosphoPeptide substrate (Invitrogen, Catalog No. PV3215) and 1× Buffer A were formulated into a mixture to be tested. The 4% DMSO solution of the test compound was prepared from 1× buffer and DMSO solution of the test compound. 2.5 μL DMSO solution of the test compound was added to a reaction well, and then 1× Buffer A, 2.5 μL of 400 μM ATP solution, 5 μL of enzyme and substrate mixture were added to become a 10 μL of reaction system. The reaction system was incubated for 4 hours at 37° C., and a mixture was prepared according to Reagent A:Buffer B=1:1024. 5 μL of a mixture of Reagent A (Invitrogen, Catalog No. PV3295) and Buffer B (Invitrogen, Catalog No. P3127) was added to a reaction well, the reaction system was incubated for 60 minutes at 25° C. The fluorescence was read by a NovoStar ELISA with excitation wavelength: 400 nm, and emission wavelength: 445 nm and 520 nm.
The activity of the compounds of the present invention: The above assay was used to determine the biochemical activity of the compounds of the present invention for inhibiting MEK kinase (MEK1).

T1 sequence (Q02750 whole entry): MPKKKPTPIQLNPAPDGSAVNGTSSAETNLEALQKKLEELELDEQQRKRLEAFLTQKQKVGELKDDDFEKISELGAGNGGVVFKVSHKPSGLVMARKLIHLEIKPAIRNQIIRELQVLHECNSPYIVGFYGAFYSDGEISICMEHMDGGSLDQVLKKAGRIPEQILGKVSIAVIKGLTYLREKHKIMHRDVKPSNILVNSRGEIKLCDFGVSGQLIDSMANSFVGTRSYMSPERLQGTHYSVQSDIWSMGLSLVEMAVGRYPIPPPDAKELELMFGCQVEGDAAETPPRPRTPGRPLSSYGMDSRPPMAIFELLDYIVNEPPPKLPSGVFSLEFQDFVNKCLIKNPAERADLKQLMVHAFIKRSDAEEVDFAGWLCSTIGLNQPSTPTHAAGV

Row | SMILES | IC50 (Colo205 cell) | IC50 [1]
1 | CCS(=O)(=O)Nc1cccc(Oc2cc(=O)n(C)c(Nc3ccc(I)cc3F)c2C(=O)NC)c1C [Example 2, N,1-dimethyl-4-(3-(ethylsulfonamido)-2-methylphenoxy)-2-((2-fluoro-4-iodophenyl)amino)-6-oxo-1,6-dihydropyridine-3-carboxamide] | 4.7 nM | 19 nM
2 | CCS(=O)(=O)Nc1cccc(Oc2c(C(N)=O)c(Nc3ccc(I)cc3F)n(C)c(=O)c2Cl)c1C [Example 5, 4-(3-(ethylsulfonamido)-2-methylphenoxy)-2-((2-fluoro-4-iodophenyl)amino)-1-methyl-5-chloro-6-oxo-1,6-dihydropyridine-3-carboxamide] |  | 4 nM
3 | CCS(=O)(=O)Nc1cccc(Oc2c(C(N)=O)c(Nc3ccc(I)cc3F)n(C)c(=O)c2F)c1C [Example 6, 4-(3-(ethylsulfonamido)-2-methylphenoxy)-2-((2-fluoro-4-iodophenyl)amino)-1-methyl-5-fluoro-6-oxo-1,6-dihydropyridine-3-carboxamide] |  | 3.4 nM
4 | Cc1c(NC(=O)C2CC2)cccc1Oc1cc(=O)n(C)c(Nc2ccc(I)cc2F)c1C(N)=O [Example 7, 4-(3-(cyclopropanecarboxamido)-2-methylphenoxy)-2-((2-fluoro-4-iodophenyl)amino)-1-methyl-6-oxo-1,6-dihydropyridine-3-carboxamide] | 0.4 nM | 5.5 nM
5 | CCC(=O)Nc1cccc(Oc2cc(=O)n(C)c(Nc3ccc(I)cc3F)c2C(N)=O)c1C [Example 8, 4-(3-propionamido-2-methylphenoxy)-2-((2-fluoro-4-iodophenyl)amino)-1-methyl-6-oxo-1,6-dihydropyridine-3-carboxamide] | 0.5 nM | 3.2 nM
6 | Cc1c(Oc2cc(=O)n(C)c(Nc3ccc(I)cc3F)c2C(N)=O)cccc1O[C@H]1CCOC1 [Example 9, (S)-2-((2-fluoro-4-iodophenyl)amino)-1-methyl-4-(2-methyl-3-((tetrahydrofuran-3-yl)oxy)phenoxy)-6-oxo-1,6-dihydropyridine-3-carboxamide] | 0.3 nM | 6 nM
7 | Cc1c(Oc2cc(=O)n(C)c(Nc3ccc(I)cc3F)c2C(N)=O)cccc1C(=O)NC1CC1 [Example 11, 4-(3-(cyclopropylcarbamoyl)-2-methylphenoxy)-2-((2-fluoro-4-iodophenyl)amino)-1-methyl-6-oxo-1,6-dihydropyridine-3-carboxamide] | 4.3 nM | 5.5 nM
8 | Cc1ccc(Oc2cc(=O)n(C)c(Nc3ccc(I)cc3F)c2C(N)=O)c(Cl)c1 [Example 15, 4-(2-chloro-4-methylphenoxy)-2-((2-fluoro-4-iodophenyl)amino)-1-methyl-6-oxo-1,6-dihydropyridine-3-carboxamide] | 10.2 nM | 8.2 nM
9 | Cc1ccc(Oc2cc(=O)n(C)c(Nc3ccc(I)cc3F)c2C(N)=O)c(F)c1 [Example 17, 4-(2-fluoro-4-methylphenoxy)-2-((2-fluoro-4-iodophenyl)amino)-1-methyl-6-oxo-1,6-dihydropyridine-3-carboxamide] | 2 nM | 8.4 nM
10 | Cc1ccc(Oc2cc(=O)n(C)c(Nc3ccc(I)cc3F)c2C(N)=O)c(C)c1 [Example 20, 4-(2,4-dimethylphenoxy)-2-((2-fluoro-4-iodophenyl)amino)-1-methyl-6-oxo-1,6-dihydropyridine-3-carboxamide] | 1.7 nM | 2.9 nM
11 | Cc1cccc(C)c1Oc1cc(=O)n(C)c(Nc2ccc(I)cc2F)c1C(N)=O [Example 21, 4-(2,6-dimethylphenoxy)-2-((2-fluoro-4-iodophenyl)amino)-1-methyl-6-oxo-1,6-dihydropyridine-3-carboxamide] | 10.2 nM | 6.3 nM
12 | Cc1ccccc1Oc1cc(=O)n(C)c(Nc2ccc(I)cc2F)c1C(N)=O [Example 23, 4-(2-methylphenoxy)-2-((2-fluoro-4-iodophenyl)amino)-1-methyl-6-oxo-1,6-dihydropyridine-3-carboxamide] | 0.4 nM | 4.2 nM
13 | Cc1c(F)cccc1Oc1c(C(N)=O)c(Nc2ccc(I)cc2F)n(C)c(=O)c1F [Example 26, 5-fluoro-4-(3-fluoro-2-methylphenoxy)-2-((2-fluoro-4-iodophenyl)amino)-1-methyl-6-oxo-1,6-dihydropyridine-3-carboxamide] |  | 3.9 nM
14 | Cc1c(F)cccc1Oc1cc(=O)n(C)c(Nc2ccc(I)cc2F)c1C(=O)NC[C@@H](O)CO [Example 27, (R)-N-(2,3-dihydroxypropyl)-4-(3-fluoro-2-methylphenoxy)-2-((2-fluoro-4-iodophenyl)amino)-1-methyl-6-oxo-1,6-dihydropyridine-3-carboxamide] |  | 28.3 nM
15 | Cc1c(F)cccc1Oc1cc(=O)n(C)c(Nc2ccc(I)cc2F)c1C(=O)NC[C@H](O)CO [Example 28, (S)-N-(2,3-dihydroxypropyl)-4-(3-fluoro-2-methylphenoxy)-2-((2-fluoro-4-iodophenyl)amino)-1-methyl-6-oxo-1,6-dihydropyridine-3-carboxamide] |  | 26 nM
16 | Cc1ccncc1Oc1cc(=O)n(C)c(Nc2ccc(I)cc2F)c1C(N)=O [Example 33, 2-((2-fluoro-4-iodophenyl)amino)-1-methyl-4-((4-methylpyridin-3-yl)oxy)-6-oxo-1,6-dihydropyridine-3-carboxamide] |  | 7.3 nM

Other lines, results leading:

Row | IC50 (Colo205 cell) | IC50 [1] | SMILES
17 | 4.3 nM | 6.3 nM | CNC(=O)c1cccc(Oc2cc(=O)n(C)c(Nc3ccc(I)cc3F)c2C(N)=O)c1C [Example 10, 4-(2-methyl-3-(methylcarbamoyl)phenoxy)-2-((2-fluoro-4-iodophenyl)amino)-1-methyl-6-oxo-1,6-dihydropyridine-3-carboxamide]
18 | 0.7 nM | 5.1 nM | Cc1c(Oc2cc(=O)n(C)c(Nc3ccc(I)cc3F)c2C(N)=O)cccc1O[C@@H]1CCOC1 [Example 12, (R)-2-((2-fluoro-4-iodophenyl)amino)-1-methyl-4-(2-methyl-3-((tetrahydrofuran-3-yl)oxy)phenoxy)-6-oxo-1,6-dihydropyridine-3-carboxamide]
19 | 2.9 nM | 5.5 nM | CC(=O)c1cccc(Oc2cc(=O)n(C)c(Nc3ccc(I)cc3F)c2C(N)=O)c1C [Example 13, 4-(3-acetyl-2-methylphenoxy)-2-((2-fluoro-4-iodophenyl)amino)-1-methyl-6-oxo-1,6-dihydropyridine-3-carboxamide]
20 | 4.2 nM | 6.2 nM | Cc1c(Cl)cccc1Oc1cc(=O)n(C)c(Nc2ccc(I)cc2F)c1C(N)=O [Example 14, 4-(3-chloro-2-methylphenoxy)-2-((2-fluoro-4-iodophenyl)amino)-1-methyl-6-oxo-1,6-dihydropyridine-3-carboxamide]
21 | 11.5 nM | 9.5 nM | COc1cccc(Oc2cc(=O)n(C)c(Nc3ccc(I)cc3F)c2C(N)=O)c1C [Example 16, 4-(3-methoxy-2-methylphenoxy)-2-((2-fluoro-4-iodophenyl)amino)-1-methyl-6-oxo-1,6-dihydropyridine-3-carboxamide]
22 | 1.4 nM | 7.9 nM | Cc1cccc(Oc2cc(=O)n(C)c(Nc3ccc(I)cc3F)c2C(N)=O)c1C [Example 18, 4-(2,3-dimethylphenoxy)-2-((2-fluoro-4-iodophenyl)amino)-1-methyl-6-oxo-1,6-dihydropyridine-3-carboxamide]
23 | 0.8 nM | 5.8 nM | Cc1cccc(Oc2cc(=O)n(C)c(Nc3ccc(I)cc3F)c2C(N)=O)c1F [Example 19, 4-(2-fluoro-3-methylphenoxy)-2-((2-fluoro-4-iodophenyl)amino)-1-methyl-6-oxo-1,6-dihydropyridine-3-carboxamide]
24 | 3.1 nM | 4 nM | Cc1c(O)cccc1Oc1cc(=O)n(C)c(Nc2ccc(I)cc2F)c1C(N)=O [Example 24, 4-(3-hydroxy-2-methylphenoxy)-2-((2-fluoro-4-iodophenyl)amino)-1-methyl-6-oxo-1,6-dihydropyridine-3-carboxamide]
